According to the Deep4Chem optical property database:

Assay: solvent given as SMILES

Cn1c(=O)cc(C(=O)c2ccccc2)c2sc(-c3ccc(OC(F)(F)F)cc3)cc21
absorption maximum (in CC#N): 394 nm | absorption maximum (in ClCCl): 400 nm

CCCCN1C(=O)c2cc(Oc3ccc(C(C)(C)C)cc3)c3c4c(Oc5ccc(C(C)(C)C)cc5)cc5c6c(cc(Oc7ccc(C(C)(C)C)cc7)c(c7c(Oc8ccc(C(C)(C)C)cc8)cc(c2c37)C1=O)c64)C(=O)N(CCCC)C5=O
absorption maximum (in ClC(Cl)Cl): 582 nm

CCCCCCCCCCCCOc1ccc(C#CC(C#Cc2ccc(OCCCCCCCCCCCC)cc2)=Cc2cc(C=C(C#Cc3ccc(OCCCCCCCCCCCC)cc3)C#Cc3ccc(OCCCCCCCCCCCC)cc3)cc(C=C(C#Cc3ccc(OCCCCCCCCCCCC)cc3)C#Cc3ccc(OCCCCCCCCCCCC)cc3)c2)cc1
absorption maximum (in CCOC(C)=O): 347 nm

Cc1cccc2c1nc1c(=O)n(C)c(=O)nc-1n2C
absorption maximum (in CC#N): 440 nm

Cc1cccc(-c2nc3sc4ccccc4c3s2)c1
absorption maximum (in CS(C)=O): 348 nm

COc1ccc2c(c1)c1ccccc1n2-c1nc2ccccc2nc1-n1c2ccccc2c2cc(OC)ccc21
absorption maximum (in Cc1ccccc1): 423 nm

O=[N+]([O-])c1ccccc1O
absorption maximum (in CO): 338 nm | absorption maximum (in O): 411 nm

CCCN1/C(=C/C=C(/C=C/C2=[N+](CCC)c3ccccc3C2(C)C)c2ccc3ccccc3n2)C(C)(C)c2ccccc21
absorption maximum (in CO): 629 nm | absorption maximum (in CS(C)=O): 641 nm | absorption maximum (in O): 633 nm

O=c1cc2cc(O)c3cccc4ccc(o1)c2c43
absorption maximum (in CC1CCCO1): 469 nm

CC1CC(C)(C)N(C)c2ccc(/C=C/c3ccc(/C=C(\C#N)C(=O)O)s3)cc21 (stereo unspecified)
absorption maximum (in ClCCl): 525 nm

CCOC(=O)/C(C)=C/C1=C(c2ccc(C)cc2)C2=Nc3c(-c4ccc(C)cc4)c(-c4ccc(OC)cc4)c(-c4ccc(C)cc4)n3[B-](F)(F)[N+]2=C1c1ccc(C)cc1
absorption maximum (in ClC(Cl)Cl): 670 nm

F[B-]1(F)n2c(NCc3ccccc3)ccc2C(c2c(Cl)cccc2Cl)=C2C=CC(NCc3ccccc3)=[N+]21
absorption maximum (in CC#N): 578 nm | absorption maximum (in CCCCCC): 581 nm | absorption maximum (in CCOC(C)=O): 580 nm | absorption maximum (in CO): 579 nm | absorption maximum (in ClCCl): 581 nm

O=c1c2ccccc2nc2ccc(-c3ccc(N(c4ccccc4)c4ccccc4)cc3)cn12
absorption maximum (in ClCCl): 355 nm

COCCC1=Cc2nc1ccc1[nH]c(cc1CCOC)c1nc(c(OC(C)=O)cc3[nH]c2cc3CCOC)C(CCOC)=C1
absorption maximum (in Cc1ccccc1): 647 nm

FC(F)(F)c1ccc(/C=C/c2nc3c(ccc4ccccc43)s2)cc1
absorption maximum (in C1CCCCC1): 375 nm | absorption maximum (in CC#N): 369 nm

c1ccc(-c2nc(-c3ccccc3)nc(-c3ccc(-n4c5ccccc5c5c6c(ccc54)C4(c5ccccc5-c5ccccc54)c4ccccc4-6)cc3)n2)cc1
absorption maximum (in Cc1ccccc1): 374 nm

O=Cc1ccc2nc(C#Cc3ccc(N(c4ccccc4)c4ccccc4)cc3)sc2c1
absorption maximum (in Cc1ccccc1): 411 nm

O=c1c2cc(-n3c4ccccc4c4ccccc43)ccc2sc2ccc(-n3c4ccccc4c4ccccc43)cc12
absorption maximum (in C1CCOC1): 408 nm | absorption maximum (in CCCCCC): 408 nm | absorption maximum (in Cc1ccccc1): 408 nm | absorption maximum (in ClC(Cl)Cl): 408 nm | absorption maximum (in ClCCl): 408 nm

CCCCCCCCc1ccc(-c2c3cc(-c4cc(CCCCCCCC)c(-c5ccc(-c6sc(/C=C7\SC(SCC)=NC7=O)cc6CCCCCCCC)s5)s4)sc3c(-c3ccc(CCCCCCCC)s3)c3cc(-c4cc(CCCCCCCC)c(-c5ccc(-c6sc(/C=C7\SC(SCC)=NC7=O)cc6CCCCCCCC)s5)s4)sc23)s1
absorption maximum (in ClC(Cl)Cl): 500 nm

O=C1[C@@H]2[C@H](C(=O)N1c1cccc3cc4ccccc4cc13)[C@@H]1C=C[C@H]2C1
absorption maximum (in ClC(Cl)Cl): 384 nm

CN(C)c1ccc(-c2ccc(-c3nc(C#N)c(C#N)n3C)cc2)cc1
absorption maximum (in C1CCCCC1): 333 nm | absorption maximum (in CC#N): 336 nm | absorption maximum (in CO): 336 nm | absorption maximum (in ClC(Cl)Cl): 348 nm

c1ccc(-c2nc3c(ccc4[nH]ccc43)o2)cc1
absorption maximum (in C1CCCCC1): 331 nm | absorption maximum (in C1COCCO1): 333 nm | absorption maximum (in CC#N): 320 nm | absorption maximum (in CO): 325 nm | absorption maximum (in Cc1ccccc1): 322 nm | absorption maximum (in O): 321 nm

CC(C)[Si](C#Cc1ccc2c(C#C[Si](C(C)C)(C(C)C)C(C)C)cc3c4cc(C#C[Si](C(C)C)(C(C)C)C(C)C)ccc4c(C#C[Si](C(C)C)(C(C)C)C(C)C)cc3c2c1)(C(C)C)C(C)C
absorption maximum (in ClCCl): 394 nm

O=C1c2cc(-n3c4ccccc4c4ccccc43)c(-n3c4ccccc4c4ccccc43)cc2C(=O)N1c1ccccc1
absorption maximum (in Cc1ccccc1): 388 nm

Cc1ccc(N(C)C)cc1C1=C2C=CC(=[N+](C)C)C=C2[Si](C)(C)c2cc(N(C)C)ccc21
absorption maximum (in O): 646 nm

c1ccc(-c2ccc(-c3ccccc3)cc2)cc1
absorption maximum (in C1CCOC1): 281 nm | absorption maximum (in C1COCCO1): 276 nm | absorption maximum (in CCO): 280 nm

Cc1ccc(C2=[N+]3C(=Cc4ccc(C)n4[B-]3(F)F)c3ccccc32)[nH]1
absorption maximum (in C1CCOC1): 599 nm | absorption maximum (in CC#N): 592 nm | absorption maximum (in CCCCCC): 602 nm | absorption maximum (in CO): 595 nm | absorption maximum (in Cc1ccccc1): 606 nm | absorption maximum (in ClCCl): 600 nm

CCN(CC)c1ccc2c(c1)oc(=O)c1c(=O)oc3c(OC)cccc3c12
absorption maximum (in CS(C)=O): 462 nm | absorption maximum (in ClCCl): 458 nm

O=C1C=C(Nc2cc(F)cc(F)c2)C(=O)c2ccccc21
absorption maximum (in CO): 448 nm

CCCCCCCCCCCCOc1cc(C(=O)Nc2ccc(-c3ccc4c(c3)C(=O)c3ccccc3-4)cc2)cc(OCCCCCCCCCCCC)c1OCCCCCCCCCCCC
absorption maximum (in C1CCOC1): 432 nm

CC(C)c1cc(C(C)C)c(B2c3cc(N4c5ccccc5Oc5ccccc54)ccc3N(c3ccccc3)c3ccc(N4c5ccccc5Oc5ccccc54)cc32)c(C(C)C)c1
absorption maximum (in C1CCCCC1): 372.79 nm

CCCCOc1c(-c2ccc(N(c3ccccc3)c3ccccc3)cc2)cc2cc(-c3ccc(N(c4ccccc4)c4ccccc4)cc3)c(OCCCC)c3c4c(OCCCC)c(-c5ccc(N(c6ccccc6)c6ccccc6)cc5)cc5cc(-c6ccc(N(c7ccccc7)c7ccccc7)cc6)c(OCCCC)c(c1c23)c54
absorption maximum (in ClCCl): 422 nm

c1cc2c3c(c1)-c1cccc4ccn(c14)B3n1ccc3cccc-2c31
absorption maximum (in C1CCOC1): 385 nm

COc1cccc(-c2nc3c([nH]2)C2=CC(=O)S[C@]2(C)[C@@]2(C)SC(=O)C=C32)c1OC
absorption maximum (in CC#N): 397 nm

CCCCCCCCOc1ccc(-c2c3c4n(c(-c5ccc(OCCCCCCCC)cc5)c3c3n2[B-](F)(F)[n+]2c(sc5ccccc52)N=3)[B-](F)(F)[n+]2c(sc3ccccc32)N=4)cc1
absorption maximum (in ClC(Cl)Cl): 655 nm

CC(C)(C)NC(=O)c1ccc(C(=O)NC(C)(C)C)c2c1c1c3ccccc3c3ccccc3c1c1c3ccccc3c3ccccc3c21
absorption maximum (in ClCCl): 388 nm

c1ccc(-c2cc(-c3ccccc3)cc(-c3ccc4c(c3)C3(c5cc(-c6cc(-c7ccccc7)cc(-c7ccccc7)c6)ccc5-4)c4ccccc4-c4c3c3c5ccccc5ccc3c3ccccc43)c2)cc1
absorption maximum (in C1CCOC1): 379 nm

CC(C)(C)c1ccc(Oc2c3c4c(cc(Oc5ccc(C(C)(C)C)cc5)c5c6c(Oc7ccc(C(C)(C)C)cc7)c(Oc7ccc(C(C)(C)C)cc7)c7c8c(cc(Oc9ccc(C(C)(C)C)cc9)c(c(c2Oc2ccc(C(C)(C)C)cc2)c45)c86)C(=O)OC7=O)C(=O)OC3=O)cc1
absorption maximum (in ClC(Cl)Cl): 571 nm

F[B-]1(F)OC(c2cccc(Br)c2)=Cc2c3ccccc3c3ccccc3[n+]21
absorption maximum (in ClC(Cl)Cl): 432 nm

CC1(C)c2ccccc2N(c2ccc(-c3nc4cc(C#N)c(C#N)cc4nc3-c3ccc(N4c5ccccc5C(C)(C)c5ccccc54)cc3)cc2)c2ccccc21
absorption maximum (in Cc1ccccc1): 454 nm

COc1nc(Nc2cc3ccc4cccc5ccc(c2)c3c45)nc(OC)n1
absorption maximum (in CC#N): 336 nm | absorption maximum (in CCCCOCCCC): 336 nm | absorption maximum (in CO): 334 nm

CN(C)c1ccc(-c2nc3ccccc3n2-c2ccccc2)cc1
absorption maximum (in CC#N): 325 nm

O=C(O)c1ccc(-c2nc(-c3ccccc3)c3c4ccccc4ccn23)cc1
absorption maximum (in CC#N): 353 nm

Nc1cccc2cccc(N)c12
absorption maximum (in CC#N): 349 nm | absorption maximum (in CO): 334 nm | absorption maximum (in CS(C)=O): 354 nm | absorption maximum (in Cc1ccccc1): 334 nm

CC(C)(C)NC(=O)c1ccc(-c2ccc(N3c4ccccc4Oc4ccccc43)cc2)c2ccc3c4ccc(F)cc4c4cc(F)ccc4c3c12
absorption maximum (in ClCCl): 331 nm

CN(C)c1[se]c(-c2ccccc2)nc1-c1ccccc1
absorption maximum (in ClC(Cl)Cl): 326 nm

CCN(CC)c1ccc2cc(/C(Cl)=C/C=C/C(=C(C#N)C#N)c3ccc4c(c3)c3ccccc3n4CC)c(=O)oc2c1
absorption maximum (in CC(C)=O): 518 nm | absorption maximum (in CCOC(C)=O): 508 nm | absorption maximum (in CN(C)C=O): 532 nm | absorption maximum (in CS(C)=O): 538 nm | absorption maximum (in Cc1ccccc1): 508 nm | absorption maximum (in ClCCl): 526 nm

F[B-]1(F)n2cccc2C(c2ccc(-c3c4ccccc4c(-c4ccccc4)c4ccccc34)cc2)=C2C=CC=[N+]21
absorption maximum (in CC#N): 498 nm | absorption maximum (in CCCCCC): 501 nm | absorption maximum (in CCO): 500 nm | absorption maximum (in CN(C)C=O): 502 nm | absorption maximum (in Cc1ccccc1): 505 nm | absorption maximum (in ClCCl): 502 nm

COc1ccc(-c2nc(-c3ccc(-c4nc(-c5ccc(OC)cc5)c(-c5ccc(OC)cc5)[nH]4)s3)[nH]c2-c2ccc(OC)cc2)cc1
absorption maximum (in CC#N): 365 nm

c1ccc2c(c1)Sc1ccccc1N2c1ccc2c(c1)C1(c3ccccc3-c3ccccc31)c1cc(N3c4ccccc4Sc4ccccc43)ccc1-2
absorption maximum (in Cc1ccccc1): 309 nm

CC1=CC(C)=[N+]2C1=C(c1ccccc1)c1c(C)c(-c3cccs3)c(C)n1[B-]2(F)F
absorption maximum (in CO): 507 nm | absorption maximum (in Cc1ccccc1): 513 nm | absorption maximum (in ClCCl): 511 nm

CN(C)c1ccc(C2=[N+]3C(=Nc4c(-c5ccccc5)cc(-c5ccc(N(C)C)cc5)n4[B-]3(F)F)C(c3ccccc3)=C2)cc1
absorption maximum (in ClC(Cl)Cl): 799 nm

CCOC(=O)C1=C(C(=O)OCC)C2(c3ccccc3-c3ccccc32)[C@@H](c2ccccc2)C=C2c3cc(OC)c(OC)cc3CCN21
absorption maximum (in ClCCl): 311 nm

CN(C)c1ccc(/C=C/c2cc(/C=C/c3ccc(N(C)C)cc3)nc(/C=C/c3ccc(N(C)C)cc3)n2)cc1
absorption maximum (in ClCCl): 402 nm

CCCCCCCCCCCCCCCCn1c(-c2cc(-c3nc4ccc(C)cc4n3CCCCCCCCCCCCCCCC)cc(-c3nc4ccc(C)cc4n3CCCCCCCCCCCCCCCC)c2)nc2ccc(C)cc21
absorption maximum (in ClCCl): 306 nm
